molecular target: Gag-Pol polyprotein (Human immunodeficiency virus type 1 group M subtype B (isolate HXB2), UniProt P04585); assay: HIV-1 RT Activity Assay; conditions: pH 7.8; 37 °C
Method: HIV-1 Reverse Transcriptase Activity was measured using the colorimetric photometric immunoassay kit provided by Roche. Estimation of RT activity is achieved by quantification of the DNA synthesized by RT in a known period of time. Incubation was performed for 2 h at 37°C. PolyA:oligodT RNA template:primer hybrid at a concentration of 2.2 μg/ml was incubated with 20 nMof purified recombinant HIV-1 reverse transcriptase in a 50 μL incubation mixture containing 50 mM Tris-HCl pH 7.8, 160 mM KCl, 11 mM MgCl2, 5.3 mM DTT, 0.5 mM EDTA, 0.3% Triton-X 100 and 10 μM dTTP (unless otherwise mentioned) in the presence of digoxigeninconjugated dUTP (dUTP-DIG) and biotin-conjugateddUTP (dUTP-biotin). In a following step, the synthesised biotin-DIG-labelled DNA was bound to the surface of streptavidin-coated ELISA-plate wells. After washing out the unbound material, an antibody to digoxigenin, conjugated to peroxidase (anti-DIG-POD), was added and bound to the digoxigenin-labelled nucleotides. After a washing step and addition of the appropriate substrate, peroxidase catalyzed the transformation of the substrate, ABTS, to a yellow coloured reaction product. 15 min after ABTS addition, the coloured product was measured using a microtitre plate (ELISA) reader. For the estimation of inhibitory action of the compounds, reverse transcriptase was incubated in the presence of the potential inhibitor for 45 min at room temperature before addition of its substrates (pre-incubation).

SMILES	IC50 [µM]
O=C1CSC(c2c(Cl)cccc2Cl)N1c1nc2ccc(Cl)cc2s1 (stereo not given) [3-(6-Chlorobenzo[d]thiazol-2-yl)-2-(2,6-dichlorophenyl)thiazolidin-4-one (3)]	> 40
O=C1CSC(c2c(Cl)cccc2Cl)N1c1nc2ccc(F)cc2s1 (stereo not given) [3-(6-Fluorobenzo[d]thiazol-2-yl)-2-(2,6-dichlorophenyl)thiazolidin-4-one (9)]	0.25
O=C1CSC(c2c(F)cccc2Cl)N1c1nc2c(Cl)cccc2s1 (stereo not given) [3-(4-Chlorobenzo[d]thiazol-2-yl)-2-(2-chloro-6-fluorophenyl)thiazolidin-4-one (7)]	0.04
COc1cccc2sc(N3C(=O)CSC3c3c(Cl)cccc3Cl)nc12 (stereo not given) [3-(4-Methoxybenzo[d]thiazol-2-yl)-2-(2,6-dichlorophenyl)thiazolidin-4-one (15)]	3
CCOc1ccc2nc(N3C(=O)CSC3c3c(F)cccc3Cl)sc2c1 (stereo not given) [3-(6-Ethoxybenzo[d]thiazol-2-yl)-2-(2-chloro-6-fluorophenyl)thiazolidin-4-one (18)]	3.4
COc1ccc2nc(N3C(=O)CSC3c3c(F)cccc3F)sc2c1 (stereo not given) [3-(6-Methoxybenzo[d]thiazol-2-yl)-2-(2,6-difluorophenyl)thiazolidin-4-one (14)]	> 40
CCOc1ccc2nc(N3C(=O)CSC3c3c(F)cccc3F)sc2c1 (stereo not given) [3-(6-Ethoxybenzo[d]thiazol-2-yl)-2-(2,6-difluorophenyl)thiazolidin-4-one (19)]	> 40
O=C1CSC(c2c(F)cccc2Cl)N1c1nc2ccccc2s1 (stereo not given) [3-(Benzo[d]thiazol-2-yl)-2-(2-chloro-6-fluorophenyl)thiazolidin-4-one (2)]	> 40
COc1ccc2nc(N3C(=O)CSC3c3c(F)cccc3Cl)sc2c1 (stereo not given) [3-(6-Methoxybenzo[d]thiazol-2-yl)-2-(2-chloro-6-fluorophenyl)thiazolidin-4-one (13)]	> 40
COc1ccc2nc(N3C(=O)CSC3c3c(Cl)cccc3Cl)sc2c1 (stereo not given) [3-(6-Methoxybenzo[d]thiazol-2-yl)-2-(2,6-dichlorophenyl)thiazolidin-4-one (12)]	> 40
O=C1CSC(c2c(Cl)cccc2Cl)N1c1nc2c(Cl)cccc2s1 (stereo not given) [3-(4-Chlorobenzo[d]thiazol-2-yl)-2-(2,6-dichlorophenyl)thiazolidin-4-one (6)]	> 40
COc1cccc2sc(N3C(=O)CSC3c3c(F)cccc3Cl)nc12 (stereo not given) [3-(4-Methoxybenzo[d]thiazol-2-yl)-2-(2-chloro-6-fluorophenyl)thiazolidin-4-one (16)]	> 40
O=C1CSC(c2c(F)cccc2Cl)N1c1nc2ccc(Cl)cc2s1 (stereo not given) [3-(6-Chlorobenzo[d]thiazol-2-yl)-2-(2-chloro-6-fluorophenyl)thiazolidin-4-one (4)]	> 40
O=C1CSC(c2c(F)cccc2F)N1c1nc2ccccc2s1 (stereo not given) [3-(Benzo[d]thiazol-2-yl)-2-(2,6-difluorophenyl)thiazolidin-4-one (1)]	> 40
O=C1CSC(c2c(F)cccc2F)N1c1nc2c(Cl)cccc2s1 (stereo not given) [3-(4-Chlorobenzo[d]thiazol-2-yl)-2-(2,6-difluorophenyl)thiazolidin-4-one (8)]	> 40
